In paper PMC12381781, “Structural and functional insights into the selective inhibition of mutant tau aggregation by purpurin and oleocanthal in frontotemporal dementia” (Protein Science : A Publication of the Protein Society, 2025):
Entries after “also recorded” stand apart in the source; their conditions may differ.

Experiments:
[1] = system: preformed R2R3 (P301L) fibrils; experiment: Elongation of preformed R2R3 (P301L) fibrils, ThT; type: biochemical; settings: R2R3 P301L pre-aggregated 24 h, compound 10 μM; for fibril elongation, aggregation post-treatment as percentage of control (AUC after compound addition): further 24–30 h; for ThT-stained aggregates from post-treatment samples, confocal imaging: further 24 h
Procedure: (§1) Peptides were pre‐aggregated for 24 h with aggregation kinetics monitored by ThT fluorescence, after which 10 μM PUR or OLC was added, followed by an additional 24–30 h of incubation (Figure 4a). Aggregation kinetics was monitored by ThT fluorescence, and elongation was quantified as the AUC following compound addition, normalized to each replicate's maximum pre‐treatment fluorescence (Figure 4b). […] WT peptide fibril elongation was reduced to 15.5 ± 2.8% (PUR) and 45.2 ± 3.2% (OLC), and P301L peptide fibril elongation was limited to 31.8 ± 0.6% (PUR) and 85.6 ± 2.2% (OLC) (Figure 4b). Fluorescence microscopy imaging further confirmed the presence of reduced ThT‐positive aggregates following the addition of PUR and OLC (Figure S12). Similar inhibition trends, with PUR outperforming OLC, were also observed for V287I and N279K peptides (Figure S12).
FIGURE 4 Purpurin (PUR) and oleocanthal (OLC) inhibit elongation of preformed wild‐type (WT) and P301L tau fibrils. (a) The thioflavin T (ThT) fluorescence kinetics of pre‐aggregated R2R3 (WT and P301L) tau peptides treated with PUR or OLC (10 μM). Peptides were first allowed to aggregate for 24 h, followed by compound addition and continued incubation for an additional 24–30 h. Vertical dashed lines indicate the time point of compound addition. Curves are normalized to each replicate's maximum pre‐treatment ThT fluorescence. Source data are provided in the Data Availability Statement section. Mean ± SEM (n ≥ 3). (b) Aggregation levels post‐treatment, expressed as a percentage of control (untreated fibrils), calculated from the area under the curve after compound addition. Mean ± SEM (n ≥ 3). ***p < 0.001, **p < 0.01, one‐way ANOVA (Tukey's post hoc test).
Figure S12. Confocal imaging of ThT-stained aggregates from post-treatment samples in Figure 4. R2R3 (WT and P301L) tau peptides were incubated for 24 h to allow initial aggregation, followed by the addition of PUR or OLC (10 µM). After a further 24 h, reaction mixtures from compound-treated wells were collected, embedded in 0.05% low-melting agarose, and processed for imaging as described in Figure S11. […] Scale bar: 50 μm.

[2] = system: preformed R2R3 (N279K) fibrils; experiment: Elongation of preformed R2R3 (N279K) fibrils, ThT; type: biochemical; settings: R2R3 N279K pre-aggregated 24 h, compound 10 μM
Procedure: as §1
Figure S13. […] (a) ThT fluorescence kinetics of pre-aggregated R2R3 (V287I and N279K ) tau peptides treated with PUR or OLC (10 µM). Peptides were first allowed to aggregate for 24 h, followed by compound addition and continued incubation for an additional 24-30 h. […] Curves are normalized to each replicate’s maximum pre-treatment ThT fluorescence. […] (b) Aggregation levels post-treatment, expressed as a percentage of control (untreated fibrils), calculated from the AUC after compound addition. […]

Tau Biosensor cells = experiment: MTS cytotoxicity assay, Tau Biosensor cells; type: cell-based; settings: 0-100 µM, 72 h
Procedure: Figure S16. Cytotoxic activity of PUR and OLC. Tau Biosensor and CCRF-CEM (human leukemic lymphoblast) cells were treated with increasing concentrations (0-100 µM) of PUR and OLC for 72 h. Cell viability was then assessed using the MTS assay. CCRF-CEM (human leukemic lymphoblasts) cells, known for their high sensitivity to cytotoxic agents ^1, were used as positive controls. […] Calculated IC50 values are indicated in the graphs. Mean ± SEM (n = 3).

Row | Structure (SMILES) | fibril elongation, aggregation post-treatment as percentage of control (AUC after compound addition) [1] | ThT-stained aggregates from post-treatment samples, confocal imaging [1] | elongation of preformed fibrils [2] | cytotoxicity, cell viability (MTS) (Tau Biosensor cells)
1 | C/C=C(/C=O)[C@@H](CC=O)CC(=O)OCCc1ccc(O)cc1 [OLC, oleocanthal] | 85.6 ± 2.2% | either a complete absence or a marked reduction in ThT signal | inhibit the elongation | neither PUR nor OLC was cytotoxic; also recorded: non‐toxic
2 | O=C1c2ccccc2C(=O)c2c(O)c(O)cc(O)c21 [PUR, purpurin] | 31.8 ± 0.6% | either a complete absence or a marked reduction in ThT signal | inhibit the elongation | neither PUR nor OLC was cytotoxic; also recorded: non‐toxic
